Assay results published in US5955431A, “Mast cell protease peptide inhibitors” (Brigham and Women's Hospital, Inc., priority 1998, dated 1999).
Where a SMILES comes first, the peptide text is derived from it. The star is where a group is joined. pNA = O=[N+]([O-])c1ccc(N*)cc1

B1: mMCP-6-FLAG: EK-activated recombinant mouse mast cell protease 6 (tryptase) with the FLAG peptide attached to its C-terminus (protein, UniProt P21845 32-276, looked up)
Tryptase beta-2: IVGGHEASESKWPWQVSLRFKLNYWIHFCGGSLIHPQWVLTAAHCVGPHIKSPQLFRVQLREQYLYYGDQLLSLNRIVVHPHYYTAEGGADVALLELEVPVNVSTHIHPISLPPASETFPPGTSCWVTGWGDIDNDEPLPPPYPLKQVKVPIVENSLCDRKYHTGLYTGDDFPIVHDGMLCAGNTRRDSCQGDSGGPLVCKVKGTWLQAGVVSWGEGCAQPNKPGIYTRVTYYLDWIHRYVPEHS
modifications: C-terminal FLAG tag

Legend:
recombinant mMCP-6-FLAG = target: T1, recombinant mMCP-6-FLAG (Mus musculus, UniProt P21845); test: spectrophotometric cleavage of trypsin-susceptible p-nitroanilide substrates by EK-activated mMCP-6-FLAG; type: biochemical
T1 construct: endogenous pro-peptide followed by EK-susceptible peptide (Asp-Asp-Asp-Asp-Lys) (N, cleaved yes); made in house; host or cells: baculovirus; Spodoptera frugiperda 9 for virus, Trichoplusia ni High Five insect cells for expression
T1 sequence (P21845 32-276): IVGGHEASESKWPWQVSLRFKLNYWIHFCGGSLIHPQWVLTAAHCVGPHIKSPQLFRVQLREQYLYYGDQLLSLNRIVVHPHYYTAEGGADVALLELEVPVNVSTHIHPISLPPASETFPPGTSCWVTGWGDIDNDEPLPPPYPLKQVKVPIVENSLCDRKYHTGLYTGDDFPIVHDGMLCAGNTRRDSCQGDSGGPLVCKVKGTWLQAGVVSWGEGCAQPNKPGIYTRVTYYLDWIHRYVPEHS
Description: Purified pro-EK-mMCP-6-FLAG (~100 μg in 100 μl) was separately mixed with 100 μl of a pH 5.2 buffer consisting of 50 mM sodium acetate and 5 mM calcium chloride. One μl of a solution containing 550 U of calf intestine EK (Biozyme) was added to each, and the mixture was incubated at 37° C. generally for 3 h to allow EK to activate the zymogen in the absence of heparin. The spectrophotometric method of Svendsen and coworkers (Throm. Res. 1972, 1:267-278) was used to determine whether or not mMCP-6-FLAG is enzymatically active. Generally, 1-μl samples of each activation reaction were placed in 1 ml of a pH 7.4 buffer containing 25 mM sodium phosphate, 1 mM EDTA, and 50 μg of tosyl-Gly-Pro-Lys-p-nitroanilide. The change in optical density at 405 nm was then determined after a 3-min incubation at room temperature. The ability of recombinant mMCP-6-FLAG to cleave the trypsin-susceptible substrates tosyl-Gly-Pro-Arg-p-nitroanilide, benzoyl-Ile-Glu-Gly-Arg-p-nitroanilide, benzoyl-Pro-Phe-Arg-p-nitroanilide, and acetyl-Ile-Glu-Ala-Arg-p-nitroanilide were also evaluated.

recombinant mMCP-7-FLAG = target: T2, recombinant mMCP-7-FLAG (Mus musculus, UniProt Q02844); test: cleavage of p-nitroanilide substrate by mMCP-7-FLAG; type: biochemical; conditions: in vitro
T2 construct: made in house; host or cells: insect cells (described in earlier work of the same group)

mouse fibronectin = test: in vitro degradation of fibronectin by recombinant tryptases; type: biochemical
Description: In Vitro Degradation of Fibronectin by Recombinant mMCP-6-FLAG--Five μg of purified mouse fibronectin (Alexis) was suspended in 1 mM EDTA and 25 mM sodium phosphate, pH 7.4, containing 0.01 U EK, 0.5 μg recombinant pro-EK-mMCP-6-FLAG, 0.5 μg recombinant mMCP-6-FLAG (activated with 0.01 U EK), or 0.5 μg recombinant mMCP-7FLAG (activated with 0.01 U EK). After an incubated for various lengths of times, the resulting digests were subjected to SDS-PAGE. In one experiment, the N-terminal amino acid sequences; of the major fibronectin fragments in the mMCP-FLAG digest were determined.

neutrophils = test: emigration of neutrophils into the peritoneal cavity after injection of tryptase; type: in vivo, BALB/c mice
Description: mMCP-6-FLAG-Induced Emigration of Neutrophils Into the Peritoneal Cavity and mMCP-6-Induced Growth of Fibroblasts and their Adhesion to Fibronectin--This experiment is discussed below.
mMCP-6-Induced Emigration of Neutrophils Into the Peritoneal Cavity of BALB/c Mice--The mast cells that reside in the peritoneal cavity of BALB/c mice express mMCP-6 but not mMCP-7 (Stevens et al., Proc. Natl. Acad. Sci. USA 1994, 91:128-132). […] Thus, the direct or indirect chemotaxis activity of mMCP-6 is relatively neutrophil specific. It also appears that tryptase treatment results in a relatively persistent recruitment of neutrophils into the peritoneal cavity.

[1] = system: Swiss albino mouse skin-derived 3T3 fibroblasts; test: adhesion and growth of fibroblasts on fibronectin-coated culture dishes; type: cell-based; conditions: for adhesion/shape of fibroblasts on fibronectin-coated dishes: 15 min at 37° C.
Description: However, these cells will become less adhesive and divide in vitro when they are trypsin treated. To determine if mMCP-6-FLAG could specifically alter the growth and/or adhesion of these cells, the fibroblasts were allowed to attach to replicate fibronectin-coated culture dishes and then were incubated for 15 min at 37° C. with buffer alone or buffer containing either pro-EK-mMCP-6-FLAG, mMCP-6-FLAG, mMCP-7-FLAG, or trypsin. […] SDS-PAGE/immunoblot analysis of the supernatants from the result cultures confirmed that fibronectin was degraded in the mMCP-6-FLAG-treated cultures but not in the pro-EK-mMCP-6-FLAG or mMCP-7-FLAG treated cultures.

T2 sequence (Q02844 29-273): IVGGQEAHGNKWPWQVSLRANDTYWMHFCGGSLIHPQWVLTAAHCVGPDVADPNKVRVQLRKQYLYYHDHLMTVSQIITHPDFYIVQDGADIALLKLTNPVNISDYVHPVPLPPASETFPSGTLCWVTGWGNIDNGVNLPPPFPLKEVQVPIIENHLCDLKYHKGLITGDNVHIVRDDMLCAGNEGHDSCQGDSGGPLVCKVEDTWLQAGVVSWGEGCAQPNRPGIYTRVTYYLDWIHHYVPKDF

Row | Molecule | cleavage of substrate by mMCP-6-FLAG (recombinant mMCP-6-FLAG; in the presence or absence of heparin) | cleavage of substrate by mMCP-7-FLAG compared with mMCP-6-FLAG (recombinant mMCP-7-FLAG) | cleavage of fibronectin in vitro (mouse fibronectin; SDS-PAGE of digests) | neutrophil chemotaxis activity in the in vivo assay (neutrophils; enzymatically active tryptase, peritoneal cavity) | contact inhibition of treated fibroblasts [1] | rate of proliferation of treated fibroblasts [1] | adhesion/shape of fibroblasts on fibronectin-coated dishes [1] | number of fibronectin fragments obtained (mouse fibronectin; 60-min incubation, tryptase bound to heparin) [fragments] | persistence of induced neutrophilia (neutrophils; kinetic experiments, peritoneal cavity) | influx of neutrophils in the peritoneal cavity (neutrophils; six to 36 h after intraperitoneal administration) | pH of optimal enzymatic activity (recombinant mMCP-6-FLAG; recombinant, EK-activated) | fibroblasts remaining attached to the culture dish ([1]; 40 min incubation) | degradation of fibronectin in culture supernatants ([1]; SDS-PAGE/immunoblot analysis)
1 | CC[C@H](C)[C@H](NC(C)=O)C(=O)N[C@@H](CCC(=O)O)C(=O)N[C@@H](C)C(=O)N[C@@H](CCCN=C(N)N)C(=O)Nc1ccc([N+](=O)[O-])cc1 [acetyl-Ile-Glu-Ala-Arg-p-nitroanilide] (Ac-IEAR-pNA) | does not effectively cleave | much better than mMCP-6-FLAG | – | – | – | – | – | – | – | – | – | – | –
2 | mMCP-7-FLAG: EK-activated recombinant mouse mast cell protease 7 (tryptase) with FLAG peptide | – | – | not | very little, if any | do not lose their contact inhibition | do not increase their rate of proliferation | continued to adhere | – | – | – | – | – | –
3 | B1 | – | – | – | – | – | – | rapidly induced the cultured fibroblasts to round up | 2 | at least 3 days | pronounced influx of neutrophils | ~7.4 | very few fibroblasts remained attached | degraded
